Source: patent US20080261911A1, “Uses of diphenyl/diphenylamine carboxylic acids” (priority 2006, published 2008)
“Also recorded” adds a separate entry of the source.

What was measured:
[1] = system: Sp1, Sp3, and Sp4 proteins; assay: Western blot of Sp1, Sp3 and Sp4 protein expression in Panc-1 cells; type: cell-based; details: for Sp1, Sp3, and Sp4 protein expression: Western blot, vs DMSO
VEGFR1 = VEGFR1 protein expression in L3.6pl cells (Western blot); type: cell-based, human; details: 50 μM, 48 h
Protocol: FIGS. 14A-14D show tolfenamic acid decreases expression of Sp and VEGFR1 proteins in pancreatic cancer cells. Tolfenamic acid effects on Panc-1 cells (FIG. 14A and FIG. 14B), and L3.6pl cells (FIG. 14C and FIG. 14D). Cells were treated with DMSO, 50 μM tolfenamic acid, or 50 μM ampiroxicam for 48 h, and whole cell lysates were analyzed by Western blot analysis. […] FIGS. 16A-16D show the interaction of Sp proteins with VEGFR1 promoter sequences. […] The specific Sp protein bands and antibody supershifted complexes are indicated with arrows. Effects of tolfenamic acid on VEGFR1 and Egr-1 protein expression in Panc-1 cells (FIG. 16C), and L3.6pl cells (FIG. 16D). […] Samples are electrophoresed, transferred to membranes, and proteins detected by incubation with polyclonal primary antibodies Sp1, Sp3, Sp4, HDAC, VEGF (a-20), c-Met, surviving, VEGF, cleaved PARP, and β-tubulin (H-235) followed by blotting with appropriate horseradish peroxidase-conjugated secondary antibody as previously described (Abdelrahim et al, 2004). After autoradiography, band intensities are determined by a scanning laser densitometer (Sharp Electronics Corporation, Mahwah, N.J.) using ZERO-D […] software (Scanalytics Corporation, Billerica, Mass.).

Panc-1 cells [2] = assay: Panc-1 cell migration (scratch) assay on collagen IV-coated plates; type: cell-based; details: 50 μM; for VEGF-B-induced cell migration: VEGF-B 50 ng/ml, 16 h
Protocol: Cells were pretreated with DMSO, 50 μM ampiroxicam, or 50 μM tolfenamic acid for 36 hr; VEGF-B (50 ng/ml) was added for 5 or 10 min, and whole cell lysates were obtained and analyzed by Western blot. Cell migration assay (FIG. 18C). […] Immunostaining of pancreatic tumors (FIG. 18D). Pancreatic tumors from athymic nude mice treated with solvent (control), gemcitabine (50 mg/kg), or tolfenamic acid (25 and 50 mg/kg) (Dick, 1996) were stained with VEGFR1 antibodies as described below and in a previous report (Dick, 1996).
Panc-1 cells were pretreated with DMSO, 50 μM ampiroxicam, or 50 μM tolfenamic acid for 48 h, and then were treated with VEGF-B (50 ng/ml) for 5 and 10 min. MAPK phosphorylation in the various treatment groups was then determined by western immunoblot analysis as described above. For migration assays, Panc-1 cells were seeded in triplicate in six-well collagen IV coated plates and then treated with the selected non-steroidal anti-inflammatory drugs for 24 h before the scratch was made. A scratch through the central axis of the plate was gently made using a sterile pipette tip. Cells were 70% confluent when the scratch was made. […] Results of this study were obtained at a 16 h time point and one plate was stained using DIFF QUIK (Dade Behring, Newark, Del.).
Previous studies have reported that activation of VEGFR1 by VEGF-B in pancreatic cancer cells results in enhanced phosphorylation of MAPK and increased cell migration and invasion. […] The importance of Sp protein in VEGFR1-dependent Panc-1 cell migration was determined using a cell migration assay on collagen IV-coated plates.

Panc-1 cells [3] = assay: Cell proliferation assay, Panc-1 cells; type: cell-based; details: for growth of Panc-1 pancreatic cancer cells: different concentrations, 6 days, cell counting
Protocol: FIGS. 6A-6E show comparative effects of non-steroidal anti-inflammatory drugs on Panc-1 cell proliferation and Sp protein expression. Effects of tolfenamic acid (FIG. 6A), ampiroxicam (FIG. 6B), naproxen (FIG. 6C), and diclofenac sodium (FIG. 6D) on Panc-1 cell proliferation. Panc-1 cells were treated with different concentrations of non-steroidal anti-inflammatory drugs for 6 days, and the number of cells were determined on days 2, 4, and 6 by cell counting techniques. […] Panc-1 cells were treated with DMSO, 150 μM ampiroxicam, 150 μM naproxen, and 50 μM tolfenamic acid for 48 hr, and levels of Sp proteins and the cleaved poly (ADP-ribose) polymerase (PARP) protein were determined in whole cell lysates by Western blot analysis. […] Panc1, Panc28 and L3.6pl cells are seeded in DMEM/F12 media with 5% FBS and treated the next day with either vehicle (DMSO) or with the indicated compounds' concentrations. Cells are counted at the indicated times using a Z1™ COULTER COUNTER® cell counter. Each experiment is carried out in triplicate and results expressed as means ±SD for each determination.

[4] = system: Bic-1 esophageal cancer cells; assay: Western blot of Sp and Sp-dependent proteins in BIC-1 esophageal cancer cells; type: cell-based; details: Bic-1 cells, 25-100 μM
Protocol: Cells are washed once with phosphate buffered saline PBS and collected by scraping in 200 μL of lysis buffer [50 mM HEPES, 0.5M sodium chloride, 1.5 mM magnesium chloride, 1 mM EGTA, 10% (v/v) glycerol, 1% Triton X-100, 5 μL/ml of Protease Inhibitor Cocktail (Sigma)]. The lysates from the cells are incubated on ice for 1 hr with intermittent vortexing followed by centrifugation at 40,000 g for 10 min at 4° C. Equal amounts of protein (60 μg) from each treatment group are diluted with loading buffer, boiled and loaded onto 10 and 12.5% SDS-polyacrylamide gel. For vascular endothelial growth factor immunoblots, 100 μg of protein are used. Samples are electrophoresed, transferred to membranes, and proteins detected by incubation with polyclonal primary antibodies Sp1, Sp3, Sp4, HDAC, VEGF (a-20), c-Met, surviving, VEGF, cleaved PARP, and β-tubulin (H-235) followed by blotting with appropriate horseradish peroxidase-conjugated secondary antibody as previously described (Abdelrahim et al, 2004). After autoradiography, band intensities are determined by a scanning laser densitometer (Sharp Electronics Corporation, Mahwah, N.J.) using ZERO-D SCANALYTICS software (Scanalytics Corporation, Billerica, Mass.).

SMILES	Sp1, Sp3, and Sp4 protein expression ([1]; 50 μM, 48 hr)	Sp protein degradation ([1]; 150 μM, 48 hr (concentration of comparable growth inhibition))	VEGFR1 protein levels, Western blot (VEGFR1)	VEGF-B-induced cell migration (Panc-1 cells [2])	growth of Panc-1 pancreatic cancer cells (Panc-1 cells [3])	decrease in levels of Sp1, Sp3, and Sp4 proteins ([1]; 50 μM, 48 hr)	order of potency for decreased expression of Sp1, Sp3, and Sp4 proteins ([1]; 50 μM, 48 hr)	cell migration in the absence of VEGF-B (Panc-1 cells [2]; 16 h time point, DMSO set at 100%)	relative potency in Panc-1 growth inhibition (Panc-1 cells [3]; compared with ampiroxicam and naproxen)	apoptosis as shown by PARP cleavage [4]	expression of Sp-dependent proteins VEGF, survivin, and c-Met [4]	protein expression of Sp1, Sp3, and Sp4 [4]
CCOC(=O)OC(C)OC1=C(C(=O)Nc2ccccn2)N(C)S(=O)(=O)c2ccccc21 (stereo not shown) [ampiroxicam]	had no effect; also recorded: did not affect Sp protein levels	only tolfenamic acid induced protein degradation	only the latter compound decreased VEGFR1 protein levels	inactive in all assays	decreased growth of Panc-1 pancreatic cancer cells	–	–	–	–	–	–	–
Cc1c(Cl)cccc1Nc1ccccc1C(=O)O [tolfenamic acid]	decreased expression of Sp1, Sp3, and Sp4 proteins; also recorded: induced protein degradation	–	decreased VEGFR1 protein levels	significantly inhibited VEGF-B-induced cell migration	decreased growth of Panc-1 pancreatic cancer cells	greater than 80%	tolfenamic acid>diclofenac˜diflunisal	only significantly inhibited by tolfenamic acid	exhibited higher potencies	induced apoptosis	decreased expression of Sp-dependent proteins vascular endothelial growth factor (VEGF), survivin, and c-Met	decreased protein expression of Sp1, Sp3, and Sp4
